{
  "source": "PubChem BioAssay AID1259407",
  "about": "(Chemical Carcinogenesis Research Information System (CCRIS), 2018)",
  "tested_on": "CCRIS mutagenicity, Ames/micronucleus/aberration tests",
  "experiment": "CCRIS mutagenicity studies",
  "note": "The source made the active and inactive calls. How the calls were made is not given here.",
  "data": [
    {"smiles": "CCCCCCCCc1ccc(Nc2ccc(CCCCCCCC)cc2)cc1", "values": [
      {"measurement": "mutagenic call", "setting": "End Point: IN VITRO CHROMOSOMAL ABERRATIONS, Test System: CHINESE HAMSTER LUNG CELLS (CHL), Metabolic Activation: NONE", "value": "inactive; negative"},
      {"measurement": "mutagenic call", "setting": "End Point: IN VITRO CHROMOSOMAL ABERRATIONS, Test System: CHINESE HAMSTER LUNG CELLS (CHL), Metabolic Activation: RAT, LIVER, S-9, KC-400", "value": "inactive; negative"},
      {"measurement": "mutagenic call", "setting": "End Point: IN VITRO CHROMOSOMAL ABERRATIONS, Test System: CHINESE HAMSTER OVARY CELLS (CHO), Metabolic Activation: NONE", "value": "inactive; negative"},
      {"measurement": "mutagenic call", "setting": "End Point: IN VITRO CHROMOSOMAL ABERRATIONS, Test System: CHINESE HAMSTER OVARY CELLS (CHO), Metabolic Activation: RAT, LIVER, S-9, AROCLOR 1254", "value": "inactive; negative"},
      {"measurement": "mutagenic call", "setting": "End Point: IN VITRO CHROMOSOMAL ABERRATIONS, Test System: CHO-LB CELLS, Metabolic Activation: NONE", "value": "inactive; negative"},
      {"measurement": "mutagenic call", "setting": "End Point: IN VITRO CHROMOSOMAL ABERRATIONS, Test System: CHO-LB CELLS, Metabolic Activation: RAT, LIVER, S-9, AROCLOR 1254", "value": "inactive; negative"},
      {"measurement": "mutagenic call", "setting": "Test System: AMES SALMONELLA TYPHIMURIUM, Strain/Indicator: TA97, Metabolic Activation: HAMSTER, LIVER, S-9, AROCLOR 1254 (10 OR 30%), Method: PREINCUBATION", "value": "inactive; negative"},
      {"measurement": "mutagenic call", "setting": "Test System: AMES SALMONELLA TYPHIMURIUM, Strain/Indicator: TA97, Metabolic Activation: NONE, Method: PREINCUBATION", "value": "inactive; negative"},
      {"measurement": "mutagenic call", "setting": "Test System: AMES SALMONELLA TYPHIMURIUM, Strain/Indicator: TA97, Metabolic Activation: RAT, LIVER, S-9, AROCLOR 1254 (10 OR 30%), Method: PREINCUBATION", "value": "inactive; negative"},
      {"measurement": "mutagenic call", "setting": "Test System: AMES SALMONELLA TYPHIMURIUM, Strain/Indicator: TA98, Metabolic Activation: HAMSTER, LIVER, S-9, AROCLOR 1254 (10 OR 30%), Method: PREINCUBATION", "value": "inactive; negative"},
      {"measurement": "mutagenic call", "setting": "Test System: AMES SALMONELLA TYPHIMURIUM, Strain/Indicator: TA98, Metabolic Activation: NONE, Method: PREINCUBATION", "value": "inactive; negative"},
      {"measurement": "mutagenic call", "setting": "Test System: AMES SALMONELLA TYPHIMURIUM, Strain/Indicator: TA98, Metabolic Activation: RAT, LIVER, S-9, AROCLOR 1254 (10 OR 30%), Method: PREINCUBATION", "value": "inactive; negative"},
      {"measurement": "mutagenic call", "setting": "Test System: AMES SALMONELLA TYPHIMURIUM, Strain/Indicator: TA100, Metabolic Activation: HAMSTER, LIVER, S-9, AROCLOR 1254 (10 OR 30%), Method: PREINCUBATION", "value": "inactive; negative"},
      {"measurement": "mutagenic call", "setting": "Test System: AMES SALMONELLA TYPHIMURIUM, Strain/Indicator: TA100, Metabolic Activation: NONE, Method: PREINCUBATION", "value": "inactive; negative"},
      {"measurement": "mutagenic call", "setting": "Test System: AMES SALMONELLA TYPHIMURIUM, Strain/Indicator: TA100, Metabolic Activation: RAT, LIVER, S-9, AROCLOR 1254 (10 OR 30%), Method: PREINCUBATION", "value": "inactive; negative"},
      {"measurement": "mutagenic call", "setting": "Test System: AMES SALMONELLA TYPHIMURIUM, Strain/Indicator: TA1535, Metabolic Activation: HAMSTER, LIVER, S-9, AROCLOR 1254 (10 OR 30%), Method: PREINCUBATION", "value": "inactive; negative"},
      {"measurement": "mutagenic call", "setting": "Test System: AMES SALMONELLA TYPHIMURIUM, Strain/Indicator: TA1535, Metabolic Activation: NONE, Method: PREINCUBATION", "value": "inactive; negative"},
      {"measurement": "mutagenic call", "setting": "Test System: AMES SALMONELLA TYPHIMURIUM, Strain/Indicator: TA1535, Metabolic Activation: RAT, LIVER, S-9, AROCLOR 1254 (10 OR 30%), Method: PREINCUBATION", "value": "inactive; negative"},
      {"measurement": "mutagenic call", "setting": "Test System: AMES SALMONELLA TYPHIMURIUM, Strain/Indicator: TA1537, Metabolic Activation: HAMSTER, LIVER, S-9, AROCLOR 1254 (30%), Method: PREINCUBATION", "value": "inactive; negative"},
      {"measurement": "mutagenic call", "setting": "Test System: AMES SALMONELLA TYPHIMURIUM, Strain/Indicator: TA1537, Metabolic Activation: NONE, Method: PREINCUBATION", "value": "inactive; negative"},
      {"measurement": "mutagenic call", "setting": "Test System: AMES SALMONELLA TYPHIMURIUM, Strain/Indicator: TA1537, Metabolic Activation: RAT, LIVER, S-9, AROCLOR 1254 (30%), Method: PREINCUBATION", "value": "inactive; negative"}
    ]},
    {"smiles": "Cc1ccc(C)c(C)c1C", "values": [
      {"measurement": "mutagenic call", "setting": "Test System: AMES SALMONELLA TYPHIMURIUM, Strain/Indicator: TA97A, Metabolic Activation: NONE, Method: STANDARD PLATE", "value": "inactive; negative"},
      {"measurement": "mutagenic call", "setting": "Test System: AMES SALMONELLA TYPHIMURIUM, Strain/Indicator: TA97A, Metabolic Activation: RAT LIVER S-9, AROCLOR 1254, Method: STANDARD PLATE", "value": "inactive; negative"},
      {"measurement": "mutagenic call", "setting": "Test System: AMES SALMONELLA TYPHIMURIUM, Strain/Indicator: TA98, Metabolic Activation: NONE, Method: STANDARD PLATE", "value": "inactive; negative"},
      {"measurement": "mutagenic call", "setting": "Test System: AMES SALMONELLA TYPHIMURIUM, Strain/Indicator: TA98, Metabolic Activation: RAT LIVER S-9, AROCLOR 1254, Method: STANDARD PLATE", "value": "inactive; negative"},
      {"measurement": "mutagenic call", "setting": "Test System: AMES SALMONELLA TYPHIMURIUM, Strain/Indicator: TA100, Metabolic Activation: NONE, Method: STANDARD PLATE", "value": "inactive; negative"},
      {"measurement": "mutagenic call", "setting": "Test System: AMES SALMONELLA TYPHIMURIUM, Strain/Indicator: TA100, Metabolic Activation: RAT LIVER S-9, AROCLOR 1254, Method: STANDARD PLATE", "value": "inactive; negative"},
      {"measurement": "mutagenic call", "setting": "Test System: AMES SALMONELLA TYPHIMURIUM, Strain/Indicator: TA102, Metabolic Activation: NONE, Method: STANDARD PLATE", "value": "inactive; negative"},
      {"measurement": "mutagenic call", "setting": "Test System: AMES SALMONELLA TYPHIMURIUM, Strain/Indicator: TA102, Metabolic Activation: RAT LIVER S-9, AROCLOR 1254, Method: STANDARD PLATE", "value": "inactive; negative"}
    ]},
    {"smiles": "Brc1c2ccccc2cc2c1ccc1ccccc12", "values": [
      {"measurement": "mutagenic call", "setting": "Test System: AMES SALMONELLA TYPHIMURIUM, Strain/Indicator: TA100, Metabolic Activation: RAT, LIVER, S-9, PCB, Method: STANDARD PLATE", "value": "active; positive"}
    ]},
    {"smiles": "COc1cc2c(cc1OC)-c1c3c(cc4c1[C@H](C2)N(C)CC4)OCO3", "values": [
      {"measurement": "mutagenic call", "setting": "Test System: AMES SALMONELLA TYPHIMURIUM, Strain/Indicator: TA98, Metabolic Activation: RAT, LIVER, S-9, PHENOBARBITAL AND BETA-NAPHTHOFLAVONE, Method: PREINCUBATION", "value": "active; positive"},
      {"measurement": "mutagenic call", "setting": "Test System: AMES SALMONELLA TYPHIMURIUM, Strain/Indicator: TA100, Metabolic Activation: RAT, LIVER, S-9, PHENOBARBITAL AND BETA-NAPHTHOFLAVONE, Method: PREINCUBATION", "value": "active; positive"}
    ]}
  ]
}
